One compound from patent US6599899B2, “Benzoxazinones as peroxisome proliferator activated receptor gamma modulators and method of treatment” (Ortho-McNeil Pharmaceutical, Inc., priority 2000, dated 2003) can be followed below.

Structures are written as SMILES.

This experiment relates to aP2 mRNA production. Nature of the experiment: aP2 assay for agonist (induction of aP2 mRNA production, bDNA assay). The class given is cell-based. As to conditions: preadipocytes.

Consider `CCCCCCN1C(=O)C(CCOc2ccccc2CC(=O)O)Oc2ccccc21` (stereo not shown) [Compound 1, Benzeneacetic acid, 2-[2-(4-hexyl-3,4-dihydro-3-oxo-2H-1,4-benzoxazin-2-yl)ethoxy]-], for which the “Agonist Intrinsic Activity” value was 40.4 fold increase over vehicle.
